Measured values reported in the NIST ThermoML archive (doi:10.1016/j.jct.2015.08.028).
± gives the expanded uncertainty stated by the source.

Key:
[1] = Crystal; DTA
[2] = Molar enthalpy of transition or fusion; conditions: Crystal; DSC

Normal melting temperature [1]: 80.8 ± 1.6 °C
Molar enthalpy of transition or fusion [2]: 4.61 ± 0.12 kcal/mol
SMILES: CC1=C(O)C(=O)C(C)O1 (configuration not stated) [4-hydroxy-2,5-dimethyl-3(2H)-furanone]
